Assay results as given in the supplement of paper PMC6045584.
± gives the standard deviation of the averaged measurements.

What was measured:
[1] = compound: CN1CCN(c2nc(C3=C(c4c[nH]c5ccccc45)C(=O)NC3=O)c3ccccc3n2)CC1 [SOTRASTAURIN/AEB071]; assay: surviving fraction relative to DMSO-only wells; higher = less growth inhibition; conditions: exposure time: 5 days
Summary of the method: (§1)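 Tumour cell lines were grown to log phase and seeded at 250–500 cells per well in 384-well plates. They were exposed continuously to inhibitors at 0.5, 1, 5, 10, 50, 100, 500 and 1000 nM for five days, beginning 24 hours after seeding. Surviving fraction is CellTiter-Glo luminescence normalised to the median of DMSO-only wells.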

[2] = compound: C[C@]12CC[C@H](O)CC1=CC[C@@H]1[C@@H]2CC[C@]2(C)C(c3cccnc3)=CC[C@@H]12 [ABIRATERONE]; assay: as above; conditions: exposure time: 5 days
Summary of the method: as §1

H23 LUNG
surviving fraction ([1]; 0.5 nM): 1.03 ± 0.015 | surviving fraction ([1]; 1 nM): 1.09 ± 0.046 | surviving fraction ([1]; 5 nM): 1.07 ± 0.045 | surviving fraction ([1]; 10 nM): 1.03 ± 0.016 | surviving fraction ([1]; 50 nM): 1.1 ± 0.076 | surviving fraction ([1]; 100 nM): 1.11 ± 0.092 | surviving fraction ([1]; 500 nM): 1.14 ± 0.037 | surviving fraction ([1]; 1000 nM): 1.116 ± 0.011 | surviving fraction ([2]; 0.5 nM): 1.07 ± 0.058 | surviving fraction ([2]; 1 nM): 1.05 ± 0.062 | surviving fraction ([2]; 5 nM): 1.06 ± 0.056 | surviving fraction ([2]; 10 nM): 1.07 ± 0.049 | surviving fraction ([2]; 50 nM): 1.1 ± 0.063 | surviving fraction ([2]; 100 nM): 1.16 ± 0.032 | surviving fraction ([2]; 500 nM): 1.17 ± 0.031 | surviving fraction ([2]; 1000 nM): 1.16 ± 0.072

SUM44 BREAST
surviving fraction ([1]; 0.5 nM): 1.03 ± 0.23 | surviving fraction ([1]; 1 nM): 1.04 ± 0.21 | surviving fraction ([1]; 5 nM): 1.13 ± 0.2 | surviving fraction ([1]; 10 nM): 1.03 ± 0.19 | surviving fraction ([1]; 50 nM): 0.895 ± 0.057 | surviving fraction ([1]; 100 nM): 0.962 ± 0.054 | surviving fraction ([1]; 500 nM): 1.02 ± 0.1 | surviving fraction ([1]; 1000 nM): 1.03 ± 0.092 | surviving fraction ([2]; 0.5 nM): 0.949 ± 0.017 | surviving fraction ([2]; 1 nM): 0.962 ± 0.057 | surviving fraction ([2]; 5 nM): 1.02 ± 0.037 | surviving fraction ([2]; 10 nM): 0.991 ± 0.045 | surviving fraction ([2]; 50 nM): 1.06 ± 0.034 | surviving fraction ([2]; 100 nM): 1.12 ± 0.07 | surviving fraction ([2]; 500 nM): 1.1 ± 0.047 | surviving fraction ([2]; 1000 nM): 1.03 ± 0.031

HCT15 LARGE INTESTINE
surviving fraction ([1]; 0.5 nM): 1.03 ± 0.12 | surviving fraction ([1]; 1 nM): 1.07 ± 0.024 | surviving fraction ([1]; 5 nM): 1.05 ± 0.053 | surviving fraction ([1]; 10 nM): 1.02 ± 0.081 | surviving fraction ([1]; 50 nM): 1.05 ± 0.054 | surviving fraction ([1]; 100 nM): 1.05 ± 0.061 | surviving fraction ([1]; 500 nM): 1.02 ± 0.079 | surviving fraction ([1]; 1000 nM): 1.05 ± 0.069 | surviving fraction ([2]; 0.5 nM): 1.08 ± 0.027 | surviving fraction ([2]; 1 nM): 1.12 ± 0.024 | surviving fraction ([2]; 5 nM): 1.1 ± 0.054 | surviving fraction ([2]; 10 nM): 1.1 ± 0.029 | surviving fraction ([2]; 50 nM): 1.11 ± 0.026 | surviving fraction ([2]; 100 nM): 1.1 ± 0.0051 | surviving fraction ([2]; 500 nM): 1.11 ± 0.04 | surviving fraction ([2]; 1000 nM): 1.1 ± 0.036

HU09 BONE
surviving fraction ([1]; 0.5 nM): 0.957 ± 0.092 | surviving fraction ([1]; 1 nM): 1.03 ± 0.088 | surviving fraction ([1]; 5 nM): 1.08 ± 0.075 | surviving fraction ([1]; 10 nM): 1.1 ± 0.075 | surviving fraction ([1]; 50 nM): 0.898 ± 0.085 | surviving fraction ([1]; 100 nM): 0.929 ± 0.11 | surviving fraction ([1]; 500 nM): 0.851 ± 0.026 | surviving fraction ([1]; 1000 nM): 0.925 ± 0.11 | surviving fraction ([2]; 0.5 nM): 1.02 ± 0.086 | surviving fraction ([2]; 1 nM): 1.11 ± 0.048 | surviving fraction ([2]; 5 nM): 1.17 ± 0.18 | surviving fraction ([2]; 10 nM): 1.12 ± 0.14 | surviving fraction ([2]; 50 nM): 1.21 ± 0.086 | surviving fraction ([2]; 100 nM): 1.18 ± 0.13 | surviving fraction ([2]; 500 nM): 1.03 ± 0.089 | surviving fraction ([2]; 1000 nM): 1.05 ± 0.12

SUM149 BREAST
surviving fraction ([1]; 0.5 nM): 0.923 ± 0.17 | surviving fraction ([1]; 1 nM): 0.901 ± 0.054 | surviving fraction ([1]; 5 nM): 0.892 ± 0.11 | surviving fraction ([1]; 10 nM): 0.896 ± 0.088 | surviving fraction ([1]; 50 nM): 0.932 ± 0.1 | surviving fraction ([1]; 100 nM): 0.851 ± 0.025 | surviving fraction ([1]; 500 nM): 0.893 ± 0.062 | surviving fraction ([1]; 1000 nM): 0.882 ± 0.031 | surviving fraction ([2]; 0.5 nM): 1.05 ± 0.046 | surviving fraction ([2]; 1 nM): 1.006 ± 0.01 | surviving fraction ([2]; 5 nM): 1.07 ± 0.014 | surviving fraction ([2]; 10 nM): 1.04 ± 0.038 | surviving fraction ([2]; 50 nM): 0.947 ± 0.085 | surviving fraction ([2]; 100 nM): 0.872 ± 0.1 | surviving fraction ([2]; 500 nM): 0.902 ± 0.069 | surviving fraction ([2]; 1000 nM): 0.892 ± 0.071

A549 LUNG
surviving fraction ([1]; 0.5 nM): 1.059 ± 0.0099 | surviving fraction ([1]; 1 nM): 1.11 ± 0.015 | surviving fraction ([1]; 5 nM): 1.076 ± 0.0085 | surviving fraction ([1]; 10 nM): 1.06 ± 0.017 | surviving fraction ([1]; 50 nM): 1.07 ± 0.021 | surviving fraction ([1]; 100 nM): 1.102 ± 0.0085 | surviving fraction ([1]; 500 nM): 1.07 ± 0.03 | surviving fraction ([1]; 1000 nM): 1.06 ± 0.048 | surviving fraction ([2]; 0.5 nM): 1.04 ± 0.05 | surviving fraction ([2]; 1 nM): 1.03 ± 0.059 | surviving fraction ([2]; 5 nM): 1.05 ± 0.01 | surviving fraction ([2]; 10 nM): 1.04 ± 0.045 | surviving fraction ([2]; 50 nM): 1.1 ± 0.049 | surviving fraction ([2]; 100 nM): 1.11 ± 0.019 | surviving fraction ([2]; 500 nM): 1.08 ± 0.12 | surviving fraction ([2]; 1000 nM): 1.09 ± 0.087

LM7 BONE
surviving fraction ([1]; 0.5 nM): 1.03 ± 0.077 | surviving fraction ([1]; 1 nM): 0.945 ± 0.024 | surviving fraction ([1]; 5 nM): 1.01 ± 0.075 | surviving fraction ([1]; 10 nM): 1.05 ± 0.062 | surviving fraction ([1]; 50 nM): 0.889 ± 0.051 | surviving fraction ([1]; 100 nM): 0.907 ± 0.049 | surviving fraction ([1]; 500 nM): 0.803 ± 0.035 | surviving fraction ([1]; 1000 nM): 0.811 ± 0.12 | surviving fraction ([2]; 0.5 nM): 0.954 ± 0.014 | surviving fraction ([2]; 1 nM): 0.963 ± 0.097 | surviving fraction ([2]; 5 nM): 1.07 ± 0.15 | surviving fraction ([2]; 10 nM): 1.01 ± 0.026 | surviving fraction ([2]; 50 nM): 1.05 ± 0.021 | surviving fraction ([2]; 100 nM): 1.06 ± 0.094 | surviving fraction ([2]; 500 nM): 0.97 ± 0.058 | surviving fraction ([2]; 1000 nM): 0.979 ± 0.038

HCC1395 BREAST
surviving fraction ([1]; 0.5 nM): 0.996 ± 0.018 | surviving fraction ([1]; 1 nM): 1.09 ± 0.058 | surviving fraction ([1]; 5 nM): 1.16 ± 0.12 | surviving fraction ([1]; 10 nM): 1.12 ± 0.15 | surviving fraction ([1]; 50 nM): 1.19 ± 0.13 | surviving fraction ([1]; 100 nM): 1.1 ± 0.1 | surviving fraction ([1]; 500 nM): 0.885 ± 0.14 | surviving fraction ([1]; 1000 nM): 0.969 ± 0.075 | surviving fraction ([2]; 0.5 nM): 1.07 ± 0.11 | surviving fraction ([2]; 1 nM): 1.07 ± 0.015 | surviving fraction ([2]; 5 nM): 1.14 ± 0.059 | surviving fraction ([2]; 10 nM): 1.13 ± 0.021 | surviving fraction ([2]; 50 nM): 1.08 ± 0.12 | surviving fraction ([2]; 100 nM): 1.11 ± 0.13 | surviving fraction ([2]; 500 nM): 1.146 ± 0.0049 | surviving fraction ([2]; 1000 nM): 1.19 ± 0.047

SG31 HEADNECK
surviving fraction ([1]; 0.5 nM): 1.28 ± 0.26 | surviving fraction ([1]; 1 nM): 1 ± 0.12 | surviving fraction ([1]; 5 nM): 1.25 ± 0.26 | surviving fraction ([1]; 10 nM): 1.12 ± 0.23 | surviving fraction ([1]; 50 nM): 0.935 ± 0.12 | surviving fraction ([1]; 100 nM): 1.03 ± 0.12 | surviving fraction ([1]; 500 nM): 1.11 ± 0.12 | surviving fraction ([1]; 1000 nM): 1.14 ± 0.032 | surviving fraction ([2]; 0.5 nM): 1.21 ± 0.14 | surviving fraction ([2]; 1 nM): 1.11 ± 0.19 | surviving fraction ([2]; 5 nM): 1.09 ± 0.12 | surviving fraction ([2]; 10 nM): 0.866 ± 0.035 | surviving fraction ([2]; 50 nM): 1.06 ± 0.13 | surviving fraction ([2]; 100 nM): 0.997 ± 0.03 | surviving fraction ([2]; 500 nM): 1.13 ± 0.23 | surviving fraction ([2]; 1000 nM): 0.981 ± 0.065

SKBR3 BREAST
surviving fraction ([1]; 0.5 nM): 1.12 ± 0.05 | surviving fraction ([1]; 1 nM): 0.9717 ± 0.0031 | surviving fraction ([1]; 5 nM): 1 ± 0.068 | surviving fraction ([1]; 10 nM): 1.07 ± 0.15 | surviving fraction ([1]; 50 nM): 0.782 ± 0.085 | surviving fraction ([1]; 100 nM): 0.84 ± 0.11 | surviving fraction ([1]; 500 nM): 0.818 ± 0.086 | surviving fraction ([1]; 1000 nM): 0.849 ± 0.12 | surviving fraction ([2]; 0.5 nM): 0.995 ± 0.11 | surviving fraction ([2]; 1 nM): 1.07 ± 0.073 | surviving fraction ([2]; 5 nM): 1.2 ± 0.17 | surviving fraction ([2]; 10 nM): 0.924 ± 0.1 | surviving fraction ([2]; 50 nM): 1.11 ± 0.18 | surviving fraction ([2]; 100 nM): 1.14 ± 0.068 | surviving fraction ([2]; 500 nM): 1.08 ± 0.1 | surviving fraction ([2]; 1000 nM): 0.918 ± 0.18
